Where two headings read alike, the source gives them in different places.
What was measured:
in vitro = conditions: monkey
[1] = parameters: method as in PMID 26506265, PMID 24466249, PMID 22454559; conditions: cited from earlier work
[2] = test system: SARS-CoV2 virus (IND/ILS-01/2020); assay: Drug assay: viral load by real-time RT-PCR in SARS-CoV2 infected Vero E6 cells; assay type: cell-based; conditions: Vero E6, 0.1 MOI, 24 h treatment, cell-associated viral RNA by RT-PCR
Vero E6 cells = conditions: Vero E6, MTT, 0.01-20 µM
SARS-CoV2 = test system: SARS-CoV2; parameters: method as in PMID 33330842; conditions: cited from earlier work
[3] = test system: differentially expressed human proteins in COVID-19; conditions: ref DGIdb, cited from earlier work
[4] = Severe acute respiratory syndrome coronavirus 2, Vero C1008
[5] = gene TNF, drug-gene interaction listed in DGIdb export

## CC(C)(O)c1ccccc1CC[C@@H](SCC1(CC(=O)O)CC1)c1cccc(/C=C/c2ccc3ccc(Cl)cc3n2)c1 [Montelukast]
In vitro
  CC50: > 20 µM
[1]
  can cross blood brain barrier: can cross blood brain barrier

## CCN(CCO)CCCC(C)Nc1ccnc2cc(Cl)ccc12 (stereo not shown) [Hydroxychloroquine]
In vitro
  CC50: > 20 µM
[2]; [4]
  IC50: 5 µM

## Ivermectin
Vero E6 cells
  CC50: 15 µM
[2]
  IC50: 5.54 µM

## OC(CNCC(O)C1CCc2cc(F)ccc2O1)C1CCc2cc(F)ccc2O1 (stereo not shown) [Nebivolol]
SARS-CoV2
  inhibition of SARS-CoV2: submicromolar range
In vitro
  CC50: > 20 µM
[2]; [4]
  IC50: 5.21 µM
[1]
  can cross blood brain barrier: can cross blood brain barrier

## OC(c1cc(C(F)(F)F)nc2c(C(F)(F)F)cccc12)C1CCCCN1 (stereo not shown) [Mefloquine]
In vitro
  CC50: > 20 µM
[2]; [4]
  IC50: 0.37 µM

## Capreomycin
Vero E6 cells
  CC50: > 20 µM
[2]
  IC50: 1 µM

## Cc1ccc(-c2cc(C(F)(F)F)nn2-c2ccc(S(N)(=O)=O)cc2)cc1 [Celecoxib]
In vitro
  CC50: > 20 µM
[2]; [4]
  IC50: 3.25 µM
[1]
  can cross blood brain barrier: can cross blood brain barrier

B1: LENOGRASTIM (protein, UniProt P09919 31-207, looked up)
Granulocyte …: TPLGPASSLPQSFLLKCLEQVRKIQGDGAALQEKLVSECATYKLCHPEELVLLGHSLGIPWAPLSSCPSQALQLAGCLSQLHSGLFLYQGLLQALEGISPELGPTLDTLQLDVADFATTIWQQMEELGMAPALQPTQGAMPAFASAFQRRAGGVLVASHLQSFLEVSYRVLRHLAQP
modifications: glycosylated
[3]; gene CSF3R
  interaction_types: agonist

B2: TABALUMAB (antibody, chains of the INN, looked up, V domains shown)
VH: QVQLQQWGAGLLKPSETLSLTCAVYGGSFSGYYWSWIRQPPGKGLEWIGEINHSGSTNYNPSLKSRVTISVDTSKNQFSLKLSSVTAADTAVYYCARGYYDILTGYYYYFDYWGQGTLVTVSS
VL: EIVLTQSPATLSLSPGERATLSCRASQSVSRYLAWYQQKPGQAPRLLIYDASNRATGIPARFSGSGSGTDSTLTISSLEPEDFAVYYCQQRSNWPRTFGQGTKVEIK
[3]; gene TNFSF13B, drug-gene interaction listed in DGIdb export
  interaction_types: inhibitor

B3: OTLERTUZUMAB (antibody, chains of the INN, looked up, V domains shown)
VH: EVQLVQSGAEVKKPGESLKISCKGSGYSFTGYNMNWVRQMPGKGLEWMGNIDPYYGGTTYNRKFKGQVTISADKSISTAYLQWSSLKASDTAMYYCARSVGPFDSWGQGTLVTVSS
VL: EIVLTQSPATLSLSPGERATLSCRASENVYSYLAWYQQKPGQAPRLLIYFAKTLAEGIPARFSGSGSGTDFTLTISSLEPEDFAVYYCQHHSDNPWTFGQGTKVEIK
[3]; gene CD37
  interaction_types: antibody

B4: ASELIZUMAB (antibody, chains of the INN, looked up, V domains shown)
VH: EVQLVESGGGLVQPGGSLRLSCAASGFTFSTYAMSWVRQAPGKGLEWVASISTGGSTYYPDSVKGRFTISRDNAKNTLYLQMNSLRAEDTAVYYCARDYDGYFDYWGQGTLVTVSS
VL: DIQMTQSPSSLSASVGDRVTITCKASQSVDYDGDSYMNWYQQKPGKAPKLLIYAASNLESGIPSRFSGSGSGTDFTLTISSLQPEDFATYYCQQSNEDPWTFGQGTKVEIK
[3]; gene SELL
  interaction_types: inhibitor

B5: CERTOLIZUMAB PEGOL (antibody, chains of the INN, looked up, V domains shown)
VH: EVQLVESGGGLVQPGGSLRLSCAASGYVFTDYGMNWVRQAPGKGLEWMGWINTYIGEPIYADSVKGRFTFSLDTSKSTAYLQMNSLRAEDTAVYYCARGYRSYAMDYWGQGTLVTVSS
VL: DIQMTQSPSSLSASVGDRVTITCKASQNVGTNVAWYQQKPGKAPKALIYSASFLYSGVPYRFSGSGSGTDFTLTISSLQPEDFATYYCQQYNIYPLTFGQGTKVEIK
modifications: Fab' PEGylated
[3]; [5]
  interaction_types: inhibitor

B6: DACLIZUMAB (antibody, chains of the INN, looked up, V domains shown)
VH: QVQLVQSGAEVKKPGSSVKVSCKASGYTFTSYRMHWVRQAPGQGLEWIGYINPSTGYTEYNQKFKDKATITADESTNTAYMELSSLRSEDTAVYYCARGGGVFDYWGQGTLVTVSS
VL: DIQMTQSPSTLSASVGDRVTITCSASSSISYMHWYQQKPGKAPKLLIYTTSNLASGVPARFSGSGSGTEFTLTISSLQPDDFATYYCHQRSTYPLTFGQGTKVEVK
[3]; gene IL2RG
  interaction_types: inhibitor

B7: ONERCEPT (protein, UniProt P19438 30-211, looked up)
extracellular domain: LVPHLGDREKRDSVCPQGKYIHPQNNSICCTKCHKGTYLYNDCPGPGQDTDCRECESGSFTASENHLRHCLSCSKCRKEMGQVEISSCTVDRDTVCGCRKNQYRHYWSENLFQCFNCSLCLNGTVHLSCQEKQNTVCTCHAGFFLRENECVSCSNCKKSLECTKLCLPQIENVKGTEDSGTT
modifications: extracellular domain
[3]; [5]
  interaction_types: inhibitor

B8: PEGSUNERCEPT (protein, UniProt P19438 30-211, looked up)
extracellular domain: LVPHLGDREKRDSVCPQGKYIHPQNNSICCTKCHKGTYLYNDCPGPGQDTDCRECESGSFTASENHLRHCLSCSKCRKEMGQVEISSCTVDRDTVCGCRKNQYRHYWSENLFQCFNCSLCLNGTVHLSCQEKQNTVCTCHAGFFLRENECVSCSNCKKSLECTKLCLPQIENVKGTEDSGTT
modifications: extracellular domain PEGylated
[3]; [5]
  interaction_types: inhibitor

From article PMC8025584, “Identification of multipotent drugs for COVID-19 therapeutics with the evaluation of their SARS-CoV2 inhibitory activity” (Computational and Structural Biotechnology Journal, 2021)
